ChEMBL document CHEMBL1156882, “5-OMe-UDP is a potent and selective P2Y(6)-receptor agonist” (J Med Chem, 2010)

Legend:
Format in all cases: functional, cell-based
[1] = target: T1, P2Y purinoceptor 2 (Homo sapiens, UniProt P41231); test: Agonist activity at human P2Y2 receptor expressed in human 1321N1 cells assessed as calcium elevation by fura2/AM assay
[2] = target: T2, P2Y purinoceptor 4 (Homo sapiens, UniProt P51582); test: Agonist activity at human P2Y4 receptor expressed in human 1321N1 cells assessed as concentration required to 50% maximal response of compound 3 at 10 uM by fura2/AM assay
T2 sequence (P51582 whole entry): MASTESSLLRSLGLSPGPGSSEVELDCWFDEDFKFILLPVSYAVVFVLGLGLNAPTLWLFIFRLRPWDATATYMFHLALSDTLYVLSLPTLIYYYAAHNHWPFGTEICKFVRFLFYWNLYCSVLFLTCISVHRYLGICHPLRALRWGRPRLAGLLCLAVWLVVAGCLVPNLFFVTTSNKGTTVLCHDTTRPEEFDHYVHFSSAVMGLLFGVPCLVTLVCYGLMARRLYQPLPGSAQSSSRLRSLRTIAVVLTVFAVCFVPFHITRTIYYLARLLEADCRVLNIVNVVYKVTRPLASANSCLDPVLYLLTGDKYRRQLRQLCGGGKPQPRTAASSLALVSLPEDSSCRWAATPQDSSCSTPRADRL

[3] = target: T3, P2Y purinoceptor 6 (Homo sapiens, UniProt Q15077); test: Agonist activity at human P2Y6 receptor expressed in human 1321N1 cells assessed as calcium elevation at 10 uM by fura2/AM assay
T3 sequence (Q15077 whole entry): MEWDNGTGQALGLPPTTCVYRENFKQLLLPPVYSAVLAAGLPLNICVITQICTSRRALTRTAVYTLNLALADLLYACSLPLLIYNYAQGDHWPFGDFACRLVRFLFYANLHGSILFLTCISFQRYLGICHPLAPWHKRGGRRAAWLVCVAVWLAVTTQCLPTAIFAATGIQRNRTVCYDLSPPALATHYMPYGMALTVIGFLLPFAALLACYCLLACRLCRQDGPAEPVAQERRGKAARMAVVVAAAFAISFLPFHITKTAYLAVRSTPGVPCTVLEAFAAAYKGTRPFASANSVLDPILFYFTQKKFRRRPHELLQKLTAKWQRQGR

[4] = target: T2, P2Y purinoceptor 4; test: Agonist activity at human P2Y4 receptor expressed in human 1321N1 cells assessed as calcium elevation by fura2/AM assay
[5] = target: T3, P2Y purinoceptor 6; test: Agonist activity at human P2Y6 receptor expressed in human 1321N1 cells assessed as calcium elevation by fura2/AM assay
[6] = target: T3, P2Y purinoceptor 6; test: Agonist activity at human P2Y6 receptor expressed in human 1321N1 cells assessed as concentration required to 50% maximal response of compound 3 at 10 uM by fura2/AM assay
[7] = target: T1, P2Y purinoceptor 2; test: Agonist activity at human P2Y2 receptor expressed in human 1321N1 cells assessed as concentration required to 50% maximal response of compound 3 at 10 uM by fura2/AM assay
[8] = target: T2, P2Y purinoceptor 4; test: Agonist activity at human P2Y4 receptor expressed in human 1321N1 cells assessed as calcium elevation at 10 uM by fura2/AM assay
[9] = target: T1, P2Y purinoceptor 2; test: Agonist activity at human P2Y2 receptor expressed in human 1321N1 cells assessed as calcium elevation at 10 uM by fura2/AM assay
[10] = target: P2Y purinoceptor 2 (Mus musculus, UniProt P35383); test: Agonist activity at mouse P2Y2 receptor expressed in human 1321N1 cells assessed as calcium elevation by fura2/AM assay
Sequence of P2Y purinoceptor 2 (Mus musculus, UniProt P35383) (P35383 whole entry): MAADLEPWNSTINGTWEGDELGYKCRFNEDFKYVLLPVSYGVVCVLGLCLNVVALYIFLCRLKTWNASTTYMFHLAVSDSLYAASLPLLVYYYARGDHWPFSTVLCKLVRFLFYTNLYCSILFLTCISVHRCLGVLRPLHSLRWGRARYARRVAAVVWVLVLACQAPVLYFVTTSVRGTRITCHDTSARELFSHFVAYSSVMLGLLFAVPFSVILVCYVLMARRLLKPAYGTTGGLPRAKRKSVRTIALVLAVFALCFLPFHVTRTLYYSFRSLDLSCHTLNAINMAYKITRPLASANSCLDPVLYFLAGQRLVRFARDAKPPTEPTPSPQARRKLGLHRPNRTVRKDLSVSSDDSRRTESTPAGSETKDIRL

T1 sequence (P41231 whole entry): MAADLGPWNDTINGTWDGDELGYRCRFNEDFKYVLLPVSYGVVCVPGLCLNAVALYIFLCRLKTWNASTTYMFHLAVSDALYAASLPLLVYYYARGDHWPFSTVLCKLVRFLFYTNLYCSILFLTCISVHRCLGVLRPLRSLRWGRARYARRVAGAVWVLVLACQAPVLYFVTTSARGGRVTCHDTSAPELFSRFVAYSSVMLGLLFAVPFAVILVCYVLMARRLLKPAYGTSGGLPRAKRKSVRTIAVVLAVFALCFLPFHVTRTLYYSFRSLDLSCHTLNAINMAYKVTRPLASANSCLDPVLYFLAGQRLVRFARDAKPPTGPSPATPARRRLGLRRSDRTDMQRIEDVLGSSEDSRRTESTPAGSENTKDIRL

For `O=c1[nH]c(=O)n([C@@H]2O[C@H](COP(=O)(O)OP(=O)(O)OP(=O)(O)O)[C@@H](O)[C@H]2O)cc1F`, the EC50 ([1]; read-out: EC50) was 6000 nM, the EC50 [2] was 600 nM and the EC50 [3] was “Active”.
With `O=c1[nH]c(=O)n([C@@H]2O[C@H](COP(=O)(O)OP(=O)(O)OP(=O)(O)O)[C@@H](O)[C@H]2O)cc1Br` the EC50 ([1]; read-out: EC50) was 2060 nM, the EC50 ([4]; read-out: EC50) was 10000 nM and the EC50 ([5]; read-out: EC50) was 800 nM.
Compound `O=c1ccn([C@@H]2O[C@H](COP(=O)(O)OP(=O)(O)OP(=O)(O)OP(=O)(O)OC[C@H]3O[C@@H](n4ccc(=O)[nH]c4=O)[C@H](O)[C@@H]3O)C3OC(Cc4ccccc4)OC32)c(=O)[nH]1` (stereo partly drawn) has an EC50 ([5]; read-out: EC50) of 140 nM.
Compound `O=c1[nH]c(=O)n([C@@H]2O[C@H](COP(=O)(O)OP(=O)(O)O)[C@@H](O)[C@H]2O)cc1I` has an EC50 ([5]; read-out: EC50) of 13 nM.
`COc1cn([C@@H]2O[C@H](COP(=O)(O)OP(=O)(O)O)[C@@H](O)[C@H]2O)c(=O)[nH]c1=O` was tested, and the EC50 ([1]; 1321-n1) was “Not Active”, the EC50 ([4]; read-out: EC50) was no less than 20000 nM and the EC50 ([5]; read-out: EC50) was 80 nM.
Compound `O=c1[nH]c(=O)n([C@@H]2O[C@H](COP(=O)(O)OP(=O)(O)O)[C@@H](O)[C@H]2O)cc1F` has an EC50 [6] of 10000 nM, an EC50 [7] of 2000 nM and an EC50 [2] of 3500 nM.
In the case of `O=c1cc(Sc2ccccc2)n([C@@H]2O[C@H](COP(=O)(O)OP(=O)(O)OP(=O)(O)O)[C@@H](O)[C@H]2O)c(=O)[nH]1`, the EC50 ([1]; 1321-n1) is reported as “Not Active”, the EC50 ([4]; 1321-n1) is reported as “Not Active” and the EC50 ([5]; 1321-n1) is reported as “Not Active”.
`COc1cn([C@@H]2O[C@H](COP(=O)(O)OP(=O)(O)OP(=O)(O)O)[C@@H](O)[C@H]2O)c(=O)[nH]c1=O` was tested, and the EC50 [8] was “Active”, the EC50 ([1]; read-out: EC50) was 2000 nM and the EC50 ([5]; read-out: EC50) was 900 nM.
With `COc1cc(=O)[nH]c(=O)n1[C@@H]1O[C@H](COP(=O)(O)OP(=O)(O)OP(=O)(O)O)[C@@H](O)[C@H]1O` the EC50 ([1]; read-out: EC50) was 3000 nM, the EC50 ([4]; 1321-n1) was “Not Active” and the EC50 ([5]; 1321-n1) was “Not Active”.
In the case of `O=c1[nH]c(=O)n([C@@H]2O[C@H](COP(=O)(O)OP(=O)(O)S)[C@@H](O)[C@H]2O)cc1Br` (stereo partly drawn), the EC50 ([5]; read-out: EC50) is reported as 47 nM.
With `O=c1ccn([C@]23C[C@H]2[C@H](COP(=O)(O)OP(=O)(O)O)[C@@H](O)[C@H]3O)c(=O)[nH]1` the EC50 ([5]; read-out: EC50) was 230 nM.
With `CSc1cc(=O)[nH]c(=O)n1[C@@H]1O[C@H](COP(=O)(O)OP(=O)(O)OP(=O)(O)O)[C@@H](O)[C@H]1O` the EC50 [9] was “Active”, the EC50 ([4]; 1321-n1) was “Not Active” and the EC50 ([5]; 1321-n1) was “Not Active”.
Compound `CCc1cn([C@@H]2O[C@H](COP(=O)(O)OP(=O)(O)OP(=O)(O)O)[C@@H](O)[C@H]2O)c(=O)[nH]c1=O` has an EC50 [10] of 99000 nM.
Work on `Nc1ccn([C@H]2C[C@H](O)[C@@H](COP(=O)(O)OP(=O)(O)OP(=O)(O)OP(=O)(O)OC[C@H]3O[C@@H](n4ccc(=O)[nH]c4=O)[C@H](O)[C@@H]3O)O2)c(=O)n1` [DENUFOSOL] yielded an EC50 ([1]; read-out: EC50) of 220 nM.
For `O=c1ccn([C@@H]2O[C@H](COP(=O)(O)OP(=O)(O)OP(=O)(O)O)[C@@H](O)[C@H]2O)c(=O)[nH]1` [URIDINE TRIPHOSPHATE], the EC50 ([1]; read-out: EC50) was 100 nM and the EC50 ([4]; read-out: EC50) was 500 nM.
`O=c1ccn([C@@H]2O[C@H](COP(=O)(O)OP(=O)(O)O)[C@@H](O)[C@H]2O)c(=O)[nH]1` [URIDINE_DIPHOSPHATE] gave an EC50 ([5]; read-out: EC50) of 140 nM.
